Assay results published in patent US20230323292A1, “METHODS FOR PRODUCING A (THREE DIMENSIONAL) NEURAL TISSUE” (TECHNISCHE UNIVERSITEIT EINDHOVEN, priority 2020, published 2023).
Structures can show the parent of a compound that is named as a salt.

Test system: MARC-produced cerebral tissues
Test: Live calcium imaging of interconnected MARC-produced cerebral tissues in the iS3CC chip after Penicillin G treatment of one chamber
Format: cell-based, human
Experimental: The transparent PDMS devices were repeatedly washed using 70% ethanol followed by sterilization using UV light in the safety cabinets (3×5 min). After neuronal induction phase, the cells were disassociated using Accutase and resuspended in 35 μl of a mixture of cold GFR-Matrigel and differentiation medium with a 70:30 v/v ratio at a final concentration of 50,000 cells per chamber. The chips containing cells and Matrigel-medium mixture were placed in a Petri dish to prevent contamination, since the chips have an open top, and kept in an incubator at 37° C. and 5% CO2 for 5 min to polymerize the Matrigel mixture. After that, an additional 200 μl of differentiation medium was added to each chamber and the chips were placed back into the incubator. The medium was refreshed and the culture was continued as described above, with gentler handing to prevent damage to the gel and cells.
Live calcium imaging was performed with the same widefield epifluorescence microscope, equipped with temperature, CO2, and humidity control. The tissues were incubated in the recommended concentrations of Fluo-4 direct according to the manufacturer (Molecular Probes, F10471) for 50 min in the incubator at 37° C. and 10 min at room temperature. After that, the tissues were washed five times with the neural maintenance medium. The calcium surges were recorded using an excitation of 488 nm and an emission of 530 nm every 10 seconds. Fluorescence images were obtained using a widefield epifluorescence microscope (Leica DMi8) equipped with either a 5×/0.15 HC PL Fluotar or a 10×/0.32 HC PL Fluotar objective lens. […]
Neuronal activity was analyzed from the time-lapse images. To account for possible drifts or deformations of the tissues, the location of the cells was detected in each frame and linked across the frames using the Mosaic particle tracker plugin in ImageJ. The fluorescence intensity of each detected cell was calculated from the image intensity data using MATLAB. Occasional gaps in the time traces, due to the cells not being detected in certain frames, were filled using spline interpolation of the intensity values. The background fluorescence in each chamber was calculated in the same way using 10 arbitrarily selected cell-sized ROIs in the cell-free regions of each chamber, averaged, and subtracted from the real (cell) data. Further, the intensity values were corrected for imaging artifacts due to out-of-focus fluorescence by subtracting the mean intensity of an annular mask with an outer radius of 18 pixels and an inner radius of 9 pixels (i.e., size of the ROI) for each ROI. […]

**Q.** `CC1(C)S[C@@H]2[C@H](NC(=O)Cc3ccccc3)C(=O)N2[C@H]1C(=O)O` [Penicillin G, Penicillin G sodium salt] was tested. Which “propagation of synchronized transient peaks from treated tissue to cells in the untreated tissue (share of the time)” value (4 cells per tissue, post-treatment with Penicillin G (FIG. 4e,f)) did it give?
**A.** ~45%

**Q.** And the “fluorescence in the treated tissue compared to the baseline” value (treated chamber, immediately following treatment, Penicillin G sodium salt 100 mg/ml bath application, Fluo-4 calcium imaging)?
**A.** increased amount of fluorescence

**Q.** And the “neuronal activity and synchrony of transient spikes in the treated tissue” value (treated chamber, post-treatment, Penicillin G 100 mg/ml, indicative for abnormal excessive discharges)?
**A.** increased magnitude and frequency of neuronal activity, as well as synchrony of transient spikes

**Q.** What about the “intensity and neuronal activity of neurons in the untreated chamber” value (untreated chamber connected across 8 μm porous membrane, post-treatment of the other chamber) of the same molecule?
**A.** increased intensity and neuronal activity
